Test results taken from ChEMBL document CHEMBL4190260, “Antibiofilm potential of 16-oxo-cleroda-3, 13(14) E-diene-15 oic acid and its five new γ-amino γ-lactone derivatives against methicillin resistant Staphylococcus aureus and Streptococcus mutans” (2017).
Values after ≈ are worked out from the molar mass of the structure shown. Active and inactive are the calls of the source. The rule behind the calls is not given here.

Experiments:
Staphylococcus aureus [1] = assay: Antibacterial activity against methicillin-resistant Staphylococcus aureus ATCC 43300 measured after overnight incubation by two-fold serial dilution method; assay type: functional
Proteus mirabilis [2] = assay: Antibiofilm activity against Proteus mirabilis ATCC 12453 measured after overnight incubation by crystal violet-staining based assay; assay type: functional
Streptococcus mutans [3] = assay: Antibacterial activity against Streptococcus mutans ATCC 25175 measured after overnight incubation by two-fold serial dilution method; assay type: functional
Klebsiella pneumoniae [4] = assay: Antibiofilm activity against Klebsiella pneumoniae ATCC 13882 measured after overnight incubation by crystal violet-staining based assay; assay type: functional
Proteus mirabilis [5] = assay: Antibacterial activity against Proteus mirabilis ATCC 12453 measured after overnight incubation by two-fold serial dilution method; assay type: functional
Staphylococcus aureus [6] = assay: Antibiofilm activity against methicillin-resistant Staphylococcus aureus ATCC 43300 measured after overnight incubation by crystal violet-staining based assay; assay type: functional
Klebsiella pneumoniae [7] = assay: Antibacterial activity against Klebsiella pneumoniae ATCC 13882 measured after overnight incubation by two-fold serial dilution method; assay type: functional
Streptococcus mutans [8] = assay: Antibiofilm activity against Streptococcus mutans ATCC 25175 measured after overnight incubation by crystal violet-staining based assay; assay type: functional
Proteus mirabilis [9] = assay: Antibiofilm activity against Proteus mirabilis ATCC 12453 at >= 50 ug/ml measured after overnight incubation by crystal violet-staining based assay; assay type: functional, organism-based
Klebsiella pneumoniae [10] = assay: Antibiofilm activity against Klebsiella pneumoniae ATCC 13882 at >= 50 ug/ml measured after overnight incubation by crystal violet-staining based assay; assay type: functional, organism-based
Staphylococcus aureus [11] = assay: Bacteriostatic activity against methicillin-resistant Staphylococcus aureus ATCC 43300 assessed as log reduction in colony forming units at 12.5 to 15 ug/ml after 24 hrs; assay type: functional, organism-based
Streptococcus mutans [12] = assay: Antibacterial activity against Streptococcus mutans ATCC 25175 assessed as time delay in bacterial growth at MIC, 2 times MIC and 4 times MIC; assay type: functional
Staphylococcus aureus [13] = assay: Antibacterial activity against methicillin-resistant Staphylococcus aureus ATCC 43300 assessed as delay in bacterial growth at 4 times MIC after 10 mins; assay type: functional, organism-based
Staphylococcus aureus [14] = assay: Antibacterial activity against methicillin-resistant Staphylococcus aureus ATCC 43300 assessed as time delay in bacterial growth at MIC after 10 mins; assay type: functional
Streptococcus mutans [15] = assay: Antibiofilm activity against Streptococcus mutans ATCC 25175 assessed as down-regulation of gtfB gene expression by semi-quantitative PCR analysis; assay type: functional, organism-based
Staphylococcus aureus [16] = assay: Antibiofilm activity against methicillin-resistant Staphylococcus aureus ATCC 43300 assessed as disruption of biofilm at 10 to 12 ug/ml by fluorescence microscopy; assay type: functional, organism-based
Streptococcus mutans [17] = assay: Potency index, ratio of cefixime MIC to test compound MIC for Streptococcus mutans ATCC 25175; assay type: functional
Staphylococcus aureus [18] = assay: Antibacterial activity against methicillin-resistant Staphylococcus aureus ATCC 43300 assessed as reduction in bacterial viability at 5 to 20 ug/ml measured after 24 hrs by MTT assay; assay type: functional
Streptococcus mutans [19] = assay: Antibiofilm activity against Streptococcus mutans ATCC 25175 assessed as down-regulation of gtfC gene expression by semi-quantitative PCR analysis; assay type: functional, organism-based
Streptococcus mutans [20] = assay: Potency index, ratio of 6 amino penicillinic acid MIC to test compound MIC for Streptococcus mutans ATCC 25175; assay type: functional
Staphylococcus aureus [21] = assay: Antibiofilm activity against methicillin-resistant Staphylococcus aureus ATCC 43300 assessed as formation of broken chains at MBIC concentration by uranyl acetate-staining based electron microscopy; assay type: functional, organism-based
Streptococcus mutans [22] = assay: Antibacterial activity against Streptococcus mutans ATCC 25175 measured assessed as inhibition of colony formation at 5 to 15 ug/ml after 24 hrs; assay type: functional, organism-based
Streptococcus mutans [23] = assay: Bacteriostatic activity against Streptococcus mutans ATCC 25175 assessed as log reduction in colony forming units at 7.5 to 10 ug/ml after 24 hrs; assay type: functional, organism-based
Streptococcus mutans [24] = assay: Bactericidal activity against Streptococcus mutans ATCC 25175 measured after overnight incubation; assay type: functional
Staphylococcus aureus [25] = assay: Potency index, ratio of cefixime MIC to test compound MIC for methicillin-resistant Staphylococcus aureus ATCC 43300; assay type: functional
Staphylococcus aureus [26] = assay: Antibacterial activity against methicillin-resistant Staphylococcus aureus ATCC 43300 assessed as inhibition of colony formation at 5 to 20 ug/ml measured after 24 hrs; assay type: functional, organism-based
Staphylococcus aureus [27] = assay: Potency index, ratio of gentamycin sulphate MIC to test compound MIC for methicillin-resistant Staphylococcus aureus ATCC 43300; assay type: functional
Streptococcus mutans [28] = assay: Antibacterial activity against Streptococcus mutans ATCC 25175 assessed as log reduction in bacterial count at 10 ug/ml measured after 24 hrs relative to control; assay type: functional
Streptococcus mutans [29] = assay: Antibacterial activity against Streptococcus mutans ATCC 25175 measured assessed as reduction in bacterial viability at 5 to 15 ug/ml after 24 hrs by MTT assay; assay type: functional
Streptococcus mutans [30] = assay: Antibacterial activity against Streptococcus mutans ATCC 25175 assessed as reduction in acid production at 0.5 times MIC and MIC measured up to 24 hrs; assay type: functional, organism-based
Streptococcus mutans [31] = assay: Antibiofilm activity against Streptococcus mutans ATCC 25175 assessed as down-regulation of luxS gene expression by semi-quantitative PCR analysis; assay type: functional, organism-based
Streptococcus mutans [32] = assay: Antibiofilm activity against Streptococcus mutans ATCC 25175 assessed as disruption of biofilm at 10 to 12 ug/ml by fluorescence microscopy; assay type: functional, organism-based
Staphylococcus aureus [33] = assay: Bactericidal activity against methicillin-resistant Staphylococcus aureus ATCC 43300 measured after overnight incubation; assay type: functional
Staphylococcus aureus [34] = assay: Antibacterial activity against methicillin-resistant Staphylococcus aureus ATCC 43300 assessed as reduction in acid production at 0.5 times MIC and MIC measured up to 24 hrs; assay type: functional, organism-based
Staphylococcus aureus [35] = assay: Antibiofilm activity against methicillin-resistant Staphylococcus aureus ATCC 43300 assessed as down-regulation of IcaA gene expression by semi-quantitative PCR analysis; assay type: functional, organism-based
Staphylococcus aureus [36] = assay: Potency index, ratio of 6 amino penicillinic acid MIC to test compound MIC for methicillin-resistant Staphylococcus aureus ATCC 43300; assay type: functional
Staphylococcus aureus [37] = assay: Antibiofilm activity against methicillin-resistant Staphylococcus aureus ATCC 43300 assessed as formation of oviod cells at MBIC concentration by uranyl acetate-staining based electron microscopy; assay type: functional, organism-based
Staphylococcus aureus [38] = assay: Antibacterial activity against methicillin-resistant Staphylococcus aureus ATCC 43300 assessed as log reduction in bacterial count at 5 ug/ml measured after 24 hrs; assay type: functional
Staphylococcus aureus [39] = assay: Antibacterial activity against methicillin-resistant Staphylococcus aureus ATCC 43300 assessed as time delay in bacterial growth at 2 times MIC after 10 mins; assay type: functional

CC1(C)S[C@@H]2[C@H](N)C(=O)N2[C@H]1C(=O)O
MIC (Staphylococcus aureus [1]): 135 µg/mL (≈ 624 µM)
Activity (Proteus mirabilis [2]): 89.2%
MBIC (Proteus mirabilis [2]): 35 µg/mL
MIC (Streptococcus mutans [3]): 70 µg/mL (≈ 324 µM)
Activity (Klebsiella pneumoniae [4]): 68.9%
MBIC (Klebsiella pneumoniae [4]): 35 µg/mL
MIC (Proteus mirabilis [5]): 35 µg/mL (≈ 162 µM)
Activity (Staphylococcus aureus [6]): 60.46%
MBIC (Staphylococcus aureus [6]): 150 µg/mL
MIC (Klebsiella pneumoniae [7]): 35 µg/mL (≈ 162 µM)
Activity (Streptococcus mutans [8]): 29.31%
MBIC (Streptococcus mutans [8]): 7 µg/mL

CC1=CCC[C@@H]2[C@@](C)(CCC3=CC(=O)OC3Nc3cccc(F)c3)[C@H](C)CC[C@@]12C (mixture of isomers)
MIC (Staphylococcus aureus [1]): 60 µg/mL
Activity (Proteus mirabilis [2]): 68.75%
MBIC (Proteus mirabilis [2]): 110 µg/mL
MIC (Streptococcus mutans [3]): 60 µg/mL
Activity (Proteus mirabilis [9]): Active
MIC (Proteus mirabilis [5]): 125 µg/mL
Activity (Klebsiella pneumoniae [10]): Active
Activity (Staphylococcus aureus [6]): 83.12%
MIC (Klebsiella pneumoniae [7]): inactive
Activity (Streptococcus mutans [8]): 73.17%
MBIC (Streptococcus mutans [8]): 55 µg/mL

C=CC1=C(C(=O)O)N2C(=O)[C@@H](NC(=O)/C(=N\OCC(=O)O)c3csc(N)n3)[C@H]2SC1 [CEFIXIME]
MIC (Staphylococcus aureus [1]): 82 µg/mL (≈ 181 µM)
Activity (Proteus mirabilis [2]): 72.6%
MBIC (Proteus mirabilis [2]): 40 µg/mL
MIC (Streptococcus mutans [3]): 40 µg/mL (≈ 88.2 µM)
Activity (Klebsiella pneumoniae [4]): 94.78%
MBIC (Klebsiella pneumoniae [4]): 40 µg/mL
MIC (Proteus mirabilis [5]): 40 µg/mL (≈ 88.2 µM)
Activity (Staphylococcus aureus [6]): 73.5%
MBIC (Staphylococcus aureus [6]): 82 µg/mL
MIC (Klebsiella pneumoniae [7]): 40 µg/mL (≈ 88.2 µM)
Activity (Streptococcus mutans [8]): 96.06%
MBIC (Streptococcus mutans [8]): 40 µg/mL

CN[C@@H]1[C@@H](O)[C@@H](O[C@@H]2[C@@H](O)[C@H](O[C@H]3O[C@H](CN)CC[C@H]3N)[C@@H](N)C[C@H]2N)OC[C@]1(C)O.O=S(=O)(O)O
MIC (Staphylococcus aureus [1]): 135 µg/mL
Activity (Proteus mirabilis [2]): 89.22%
MBIC (Proteus mirabilis [2]): 6.25 µg/mL
MIC (Streptococcus mutans [3]): 10 µg/mL
Activity (Klebsiella pneumoniae [4]): 89.92%
MBIC (Klebsiella pneumoniae [4]): 3 µg/mL
MIC (Proteus mirabilis [5]): 6.25 µg/mL
Activity (Staphylococcus aureus [6]): 90.8%
MBIC (Staphylococcus aureus [6]): 150 µg/mL
MIC (Klebsiella pneumoniae [7]): 3 µg/mL
Activity (Streptococcus mutans [8]): 76.42%
MBIC (Streptococcus mutans [8]): 10 µg/mL

CC1=CCC[C@@H]2[C@@](C)(CCC3=CC(=O)OC3Nc3ccccc3)[C@H](C)CC[C@@]12C (mixture of isomers)
Activity (Staphylococcus aureus [11]): Active
Time (Streptococcus mutans [12]): >=8 hr
Activity (Staphylococcus aureus [13]): Active
Time (Staphylococcus aureus [14]): 1 to 2 h
Activity (Streptococcus mutans [15]): Active
Activity (Staphylococcus aureus [16]): Active
Ratio (Streptococcus mutans [17]): 5
MIC (Staphylococcus aureus [1]): 10 µg/mL
Activity (Staphylococcus aureus [18]): <=90%
Activity (Streptococcus mutans [19]): Active
Ratio (Streptococcus mutans [20]): 5
MIC (Streptococcus mutans [3]): 15 µg/mL
Activity (Staphylococcus aureus [21]): Active
Activity (Streptococcus mutans [22]): Active
Activity (Streptococcus mutans [23]): Active
MBC (Streptococcus mutans [24]): inactive
Ratio (Staphylococcus aureus [25]): 5
Activity (Staphylococcus aureus [26]): Active
Ratio (Staphylococcus aureus [27]): 5
Activity (Streptococcus mutans [28]): 7.5 - 8 log10CFU/ml
Activity (Streptococcus mutans [29]): <=90%
Activity (Streptococcus mutans [30]): Active
Activity (Staphylococcus aureus [6]): 96.9%
MBIC (Staphylococcus aureus [6]): 10 µg/mL
Activity (Streptococcus mutans [31]): Active
Activity (Streptococcus mutans [32]): Active
MIC (Klebsiella pneumoniae [7]): inactive
MBC (Staphylococcus aureus [33]): inactive
Activity (Staphylococcus aureus [34]): Active
Activity (Staphylococcus aureus [35]): inactive
Activity (Streptococcus mutans [8]): 95.88%
MBIC (Streptococcus mutans [8]): 15 µg/mL
Ratio (Staphylococcus aureus [36]): 5
Activity (Staphylococcus aureus [37]): Active
Activity (Staphylococcus aureus [38]): 9.5 log10CFU/ml
Time (Staphylococcus aureus [39]): 1 to 2 h
